ChEMBL document CHEMBL3407404, “Cyclopentyl-pyrimidine based analogues as novel and potent IGF-1R inhibitor” (Eur J Med Chem, 2015)

Tests used:
[1] = target: Insulin-like growth factor 1 receptor (Homo sapiens, UniProt P08069); experiment: Inhibition of IGF1R (unknown origin) using poly-G1 as substrate incubated for 10 mins prior to substrate addition measured after 1 hr by time-resolved fluorescence assay
[2] = Oral bioavailability in Sprague-Dawley rat at 10 mg/kg; type: ADME, organism-based; conditions: in vivo
[3] = Growth inhibition of human H460 cells after 48 hrs by propidium iodide staining-based fluorescence assay; type: functional, cell-based; conditions: NCI-H460, 48 h
[4] = Initial concentration in Sprague-Dawley rat at 2 mg/kg, iv; type: ADME, organism-based; design: dose 2 mg/kg, route intravenous; conditions: in vivo
[5] = Growth inhibition of human COLO205 cells after 48 hrs by propidium iodide staining-based fluorescence assay; type: functional, cell-based; conditions: COLO 205, 48 h
A-431 = experiment: Growth inhibition of human A431 cells after 48 hrs by propidium iodide staining-based fluorescence assay; type: functional, cell-based; conditions: A-431, 48 h
MDA-MB-231 = experiment: Growth inhibition of human MDA-MB-231 cells after 48 hrs by propidium iodide staining-based fluorescence assay; type: functional, cell-based; conditions: MDA-MB-231, 48 h
[6] = Clearance in Sprague-Dawley rat at 2 mg/kg, iv; type: ADME, organism-based; design: dose 2 mg/kg, route intravenous; conditions: in vivo
[7] = Half life in Sprague-Dawley rat at 2 mg/kg, iv; type: ADME, organism-based; design: dose 2 mg/kg, route intravenous; conditions: in vivo
[8] = Growth inhibition of human HCT116 cells after 48 hrs by propidium iodide staining-based fluorescence assay; type: functional, cell-based; conditions: HCT-116, 48 h
[9] = Half life in Sprague-Dawley rat at 10 mg/kg, po; type: ADME, organism-based; design: dose 10 mg/kg, route oral; conditions: in vivo
[10] = Volume of distribution at steady state in Sprague-Dawley rat at 2 mg/kg, iv; type: ADME, organism-based; design: dose 2 mg/kg, route intravenous; conditions: in vivo, read-out: Vdss
MCF7 = experiment: Growth inhibition of human MCF7 cells after 48 hrs by propidium iodide staining-based fluorescence assay; type: functional, cell-based; conditions: MCF7, 48 h
NCI-H1975 = experiment: Growth inhibition of human NCI-H1975 cells after 48 hrs by propidium iodide staining-based fluorescence assay; type: functional, cell-based; conditions: NCI-H1975, 48 h
Insulin receptor = Insulin receptor (Homo sapiens, UniProt P06213); experiment: Inhibition of IR (unknown origin) using poly-G1 as substrate incubated for 10 mins prior to substrate addition measured after 1 hr by time-resolved fluorescence assay
Chain of Insulin receptor (P06213 28-758 limits assumed): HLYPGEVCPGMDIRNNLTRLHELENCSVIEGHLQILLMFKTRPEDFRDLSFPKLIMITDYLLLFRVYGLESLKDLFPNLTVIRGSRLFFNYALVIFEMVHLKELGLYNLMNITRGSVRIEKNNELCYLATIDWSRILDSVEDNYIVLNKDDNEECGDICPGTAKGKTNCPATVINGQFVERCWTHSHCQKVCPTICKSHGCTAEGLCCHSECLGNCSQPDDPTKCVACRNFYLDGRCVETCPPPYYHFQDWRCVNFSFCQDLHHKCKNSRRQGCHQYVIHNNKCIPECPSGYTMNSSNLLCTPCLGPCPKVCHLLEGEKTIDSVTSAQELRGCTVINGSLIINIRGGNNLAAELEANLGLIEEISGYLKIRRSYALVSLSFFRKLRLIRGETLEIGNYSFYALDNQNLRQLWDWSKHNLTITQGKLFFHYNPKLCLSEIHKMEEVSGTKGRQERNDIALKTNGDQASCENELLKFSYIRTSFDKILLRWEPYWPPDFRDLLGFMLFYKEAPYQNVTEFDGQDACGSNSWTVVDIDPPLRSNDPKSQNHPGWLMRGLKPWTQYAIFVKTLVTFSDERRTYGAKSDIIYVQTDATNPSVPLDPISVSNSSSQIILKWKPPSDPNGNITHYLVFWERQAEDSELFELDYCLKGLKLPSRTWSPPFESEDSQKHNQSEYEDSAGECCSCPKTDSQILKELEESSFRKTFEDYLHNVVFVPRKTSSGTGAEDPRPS
Chain of Insulin receptor (P06213 763-1382 limits assumed): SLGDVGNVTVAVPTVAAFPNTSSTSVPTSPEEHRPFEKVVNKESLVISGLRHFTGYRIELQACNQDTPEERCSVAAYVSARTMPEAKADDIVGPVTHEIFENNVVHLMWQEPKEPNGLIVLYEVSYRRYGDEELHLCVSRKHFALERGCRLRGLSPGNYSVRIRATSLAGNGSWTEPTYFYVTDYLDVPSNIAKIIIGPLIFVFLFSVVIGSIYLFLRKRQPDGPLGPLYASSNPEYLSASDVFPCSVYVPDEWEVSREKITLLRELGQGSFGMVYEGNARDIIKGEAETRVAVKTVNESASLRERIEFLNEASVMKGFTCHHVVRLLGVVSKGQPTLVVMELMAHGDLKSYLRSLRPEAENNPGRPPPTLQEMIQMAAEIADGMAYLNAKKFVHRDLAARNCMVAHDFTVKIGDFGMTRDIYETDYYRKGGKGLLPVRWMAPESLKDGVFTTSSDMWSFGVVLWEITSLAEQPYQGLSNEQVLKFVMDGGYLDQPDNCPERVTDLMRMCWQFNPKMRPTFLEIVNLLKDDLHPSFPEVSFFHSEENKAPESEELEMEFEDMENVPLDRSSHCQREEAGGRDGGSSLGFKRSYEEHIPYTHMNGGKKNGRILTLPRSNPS

Chain of Insulin-like growth factor 1 receptor (P08069 31-736 limits assumed): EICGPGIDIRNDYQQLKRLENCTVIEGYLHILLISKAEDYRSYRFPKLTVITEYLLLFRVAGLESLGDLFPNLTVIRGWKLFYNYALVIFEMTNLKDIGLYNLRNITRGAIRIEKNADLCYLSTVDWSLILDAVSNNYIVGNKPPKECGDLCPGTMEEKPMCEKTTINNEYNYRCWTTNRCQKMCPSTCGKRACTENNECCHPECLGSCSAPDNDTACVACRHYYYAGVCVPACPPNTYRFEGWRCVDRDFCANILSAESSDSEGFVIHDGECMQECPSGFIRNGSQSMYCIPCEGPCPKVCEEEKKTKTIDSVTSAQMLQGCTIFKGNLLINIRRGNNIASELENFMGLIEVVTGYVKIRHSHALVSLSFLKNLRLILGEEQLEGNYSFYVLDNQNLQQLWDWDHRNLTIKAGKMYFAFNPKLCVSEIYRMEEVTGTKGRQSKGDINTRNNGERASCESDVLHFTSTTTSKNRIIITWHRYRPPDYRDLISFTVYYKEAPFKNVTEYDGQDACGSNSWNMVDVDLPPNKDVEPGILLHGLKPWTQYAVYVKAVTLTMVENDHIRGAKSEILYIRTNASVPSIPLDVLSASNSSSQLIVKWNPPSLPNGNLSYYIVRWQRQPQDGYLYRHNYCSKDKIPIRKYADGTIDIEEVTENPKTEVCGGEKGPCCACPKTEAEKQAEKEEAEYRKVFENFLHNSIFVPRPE
Chain of Insulin-like growth factor 1 receptor (P08069 741-1367 limits assumed): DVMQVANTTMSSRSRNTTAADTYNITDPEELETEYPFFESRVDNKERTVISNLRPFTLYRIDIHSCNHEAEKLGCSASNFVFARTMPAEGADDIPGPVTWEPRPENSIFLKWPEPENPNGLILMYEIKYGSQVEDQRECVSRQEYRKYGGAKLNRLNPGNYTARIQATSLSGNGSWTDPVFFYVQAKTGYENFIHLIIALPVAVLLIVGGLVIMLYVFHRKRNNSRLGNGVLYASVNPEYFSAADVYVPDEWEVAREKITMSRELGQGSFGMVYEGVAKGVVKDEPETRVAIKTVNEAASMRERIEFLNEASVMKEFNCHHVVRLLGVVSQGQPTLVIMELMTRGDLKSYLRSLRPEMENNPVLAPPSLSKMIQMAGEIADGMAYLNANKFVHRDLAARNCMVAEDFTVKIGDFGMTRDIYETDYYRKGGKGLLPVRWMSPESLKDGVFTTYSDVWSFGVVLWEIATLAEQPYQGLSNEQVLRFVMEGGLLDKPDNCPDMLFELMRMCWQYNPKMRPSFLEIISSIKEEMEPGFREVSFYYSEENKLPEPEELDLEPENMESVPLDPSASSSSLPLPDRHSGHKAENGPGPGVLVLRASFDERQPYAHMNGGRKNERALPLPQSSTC

Compound	IC50 ([1]; read-out: IC50) [nM]	also measured
c1ccc(-c2cc(Nc3nc(N4CCCCCC4)nc4c3CCC4)n[nH]2)cc1	> 1000	–
CCOC(=O)C1CCCN(c2nc3c(c(Nc4cc(C(C)(C)C)[nH]n4)n2)CCC3)C1 (centres undefined)	108	–
CC1CCN(c2nc3c(c(Nc4cc(-c5ccccc5)[nH]n4)n2)CCC3)CC1	> 1000	–
CC(C)(C)c1cc(Nc2nc(N3CCCCCC3)nc3c2CCC3)n[nH]1	568	–
Cc1cc(Nc2nc(N3CCCCCC3)nc3c2CCC3)n[nH]1	2000	–
c1c(Nc2nc(N3CCNCC3)nc3c2CCC3)n[nH]c1C1CC1	> 1000	–
CC1CCN(c2nc(Nc3cc(C4CC4)[nH]n3)c3c(n2)C(C)(C)CC3)CC1	1500	–
CC1CCN(c2nc(Nc3cc(C4CC4)[nH]n3)c3c(n2)C2CCC3C2)CC1 (centres undefined)	1190	–
CC1CCN(c2nc(Nc3cc(C4CC4)[nH]n3)c3c(n2)C2(CCCC2)CC3)CC1	2800	–
CC1CCN(c2nc(Nc3cc(C4CC4)[nH]n3)c3c(n2)C(F)(F)CC3)CC1	786	–
O=C(O)C1CCN(c2nc3c(c(Nc4cc(C5CC5)[nH]n4)n2)CCC3)CC1	> 1000	–
Cc1cc(Nc2nc(N3CCC(C)CC3)nc3c2CCC3)n[nH]1	–	IC50 [1]: Not Active
CN(C)CCN(C)c1nc2c(c(Nc3cc(C4CC4)[nH]n3)n1)CCC2	> 1000	–
CC(C)(C)c1cc(Nc2nc(N3CCCCC3)nc3c2CCC3)n[nH]1	251	–

Further lines, with some results ahead:

IC50 ([1]; read-out: IC50) [nM]	Compound	also measured
300	CC1CCN(c2nc3c(c(Nc4cc(C(C)(C)C)[nH]n4)n2)CCC3)CC1	–
90	OCC1CCCN(c2nc3c(c(Nc4cc(C5CC5)[nH]n4)n2)CCC3)C1 (centres undefined)	–
35	CCOC(=O)C1CCN(c2nc3c(c(Nc4cc(C5CC5)[nH]n4)n2)CCC3)CC1	–
10	c1c(Nc2nc(N3CCCCCC3)nc3c2CCC3)n[nH]c1C1CC1	–
267	c1ccc(CNc2nc3c(c(Nc4cc(C5CC5)[nH]n4)n2)CCC3)cc1	–
58	c1c(Nc2nc(N3CCCCCCC3)nc3c2CCC3)n[nH]c1C1CC1	–
442	Cc1cc(Nc2nc(N3CCCCC3)nc3c2CCC3)n[nH]1	–
149	Cc1ccc(CNc2nc3c(c(Nc4cc(C5CC5)[nH]n4)n2)CCC3)cc1	–
970	CCOC(=O)C1CCCN(c2nc3c(c(Nc4cc(C)[nH]n4)n2)CCC3)C1 (centres undefined)	–
203	CC1(C)CCN(c2nc3c(c(Nc4cc(C5CC5)[nH]n4)n2)CCC3)CC1	–
41	c1c(Nc2nc(N3CC4CCC3C4)nc3c2CCC3)n[nH]c1C1CC1 (centres undefined)	–
32	c1c(Nc2nc(N3CCCCC3)nc3c2CCC3)n[nH]c1C1CC1	–
184	CCN(CC)C(=O)C1CCCN(c2nc3c(c(Nc4cc(C5CC5)[nH]n4)n2)CCC3)C1 (centres undefined)	–
124	N#CC1CCN(c2nc3c(c(Nc4cc(C5CC5)[nH]n4)n2)CCC3)CC1	–
20	CC1CCN(c2nc3c(c(Nc4cc(C5CC5)[nH]n4)n2)CCC3)CC1	bioavailability [2]: 11.3%; IC50 [3]: 180 nM; C0 [4]: 1050 ng/mL; IC50 [5]: 2190 nM; IC50 (A-431): 340 nM; IC50 (MDA-MB-231): 700 nM; clearance [6]: 59.1 mL/min/kg; half-life [7]: 51 min; IC50 [8]: 350 nM; half-life [9]: 52.2 min; Vd [10]: 4.37 L/kg; IC50 (MCF7): 1670 nM; IC50 (NCI-H1975): 3000 nM; IC50 (Insulin receptor): 110 nM
97	c1ccc(-c2nc3c(c(Nc4cc(C5CC5)[nH]n4)n2)CCC3)cc1	–
